Measurements: article PMC12040169 (PLOS Biology, 2025)

Experiment: in vitro
Conditions: human, hela cells, % viability

| SMILES | viability at 28.5 h, 10 µM [%] |
| --- | --- |
| CC(=O)Nc1cccc(CNC(=O)c2cccnc2OCC(F)(F)F)c1 [CBK304557] | 87.2 |
| OCCN1CCN(Cc2nc(O)c3ccccc3n2)CC1 [CBK266089] | 98.5 |
| O=C(O)CCc1nc2ccccc2n1C1CCCCC1 [CBK286961] | 87.5 |
| O=C(N[C@H]1C[C@H]2C(=O)Nc3ccccc3C(=O)N2C1)c1cccnc1 [CBK289356] | 110 |
| Cc1nnc(SCc2nnnn2-c2ccccc2)nc1O [CBK266302] | 101 |
| COC(=O)c1ccc(C2N(Cc3ccccc3)CCN2Cc2ccccc2)cc1 [CBK265201] | 87.3 |
| CC(C)(C)c1ccc(-c2ccc3ccc(=O)[nH]c3n2)cc1 [CBK073716] | 96.5 |
| CCCCOc1ccccc1C1CC(=O)Nc2c(-c3ccccc3F)csc21 (stereo not drawn) [CBK294439] | 81 |
| O=C(NCc1cccc2ccccc12)N1CCCCC1CO (stereo not drawn) [CBK156167] | 99.7 |
| O=C(Nc1ccccc1C(=O)O)c1cccc(C(=O)Nc2ccccc2C(=O)O)c1 [CBK261166] | 105 |
| O=P(O)(CCc1ccccc1)CN1CCOCC1 [CBK262305] | 104 |
| O=C(c1c[nH]c(C(=O)N2CCN(c3ncccn3)CC2)c1)c1ccc(Cl)cc1Cl [CBK107418] | 89.4 |
| CC(Oc1cccc(Br)c1)C(=O)NCCC(=O)O (stereo not drawn) [CBK268024] | 90.9 |
| COc1cc(NC(=O)c2cc3c4c(sc3nc2N)CN(C)CC4)c(OC)c(OC)c1 [CBK269597] | 77.1 |
| O=C(CC1Sc2ccccc2NC1=O)Nc1ccc([N+](=O)[O-])c(F)c1 (stereo not drawn) [CBK264717] | 85.5 |
| Fc1ccc(-n2cnnn2)cc1 [CBK027592] | 110 |
| Cc1cc(NS(=O)(=O)c2ccc(N3CCOCC3)nc2)n(C)n1 [CBK067253] | 117 |
| O=S(=O)(Nc1ccccc1O)c1ccc(OC(F)(F)F)cc1 [CBK043512] | 80.2 |

| SMILES | viability at 28.5 h, 10 µM [%] |
| --- | --- |
| Cc1ccc(-c2nc3ccccc3[nH]2)cc1NC(=O)CCCc1ccccc1 [CBK265789] | 92.9 |
| CCCC1(OC(=O)Nc2ccc(Cl)cc2)CCCCC1 [CBK026295] | 91.4 |
| Cc1nc(-c2ccc(CNS(=O)(=O)c3ccc(Cl)cc3)cc2)ccc1C(N)=O [CBK285643] | 90.5 |
| O=C(Nc1ccc(Cl)cc1)C(Cc1ccccc1)N1C(=O)c2cc(Cl)c(Cl)cc2C1=O (stereo not drawn) [CBK264172] | 99.2 |
| CN(c1cccc(NS(=O)(=O)c2ccc3ccccc3c2)c1)S(C)(=O)=O [CBK267507] | 85.7 |
| O=C(NC(=S)N1CCN(c2ccc([N+](=O)[O-])c(N3CCOCC3)c2)CC1)c1cc2ccccc2o1 [CBK268335] | 109 |
| O=C(/C=C/c1ccc([N+](=O)[O-])cc1)Nc1ccc(O)cc1C(=O)O [CBK263613] | 81 |
| Cc1ccc(NC(=O)c2ccc(-c3ccccc3)cc2)c(OC(=O)c2ccc(-c3ccccc3)cc2)c1 [CBK261347] | 98.9 |
| Cc1nc2nc(N)nn2c(C)c1CCC(=O)NCc1ccccc1F [CBK305860] | 77.6 |
| O=C(Nc1ccccc1-c1nc2ccccc2s1)c1sc2cc(Cl)ccc2c1Cl [CBK268642] | 88.5 |
| O=C1CC(N2CCN(c3ccccn3)CC2)C(=O)N1CCc1ccccc1 (stereo not drawn) [CBK262282] | 77.9 |
| c1coc(CNc2cncc(-c3ccc4c(c3)OCO4)n2)c1 [CBK065930] | 101 |
| CN(C)CCN(C)c1cncc(-c2ccc3c(c2)OCO3)n1 [CBK065897] | 101 |
| O=C(Cc1c(O)c2ccccc2[nH]c1=O)NCc1ccc(Cl)cc1 [CBK160317] | 101 |
| OCCCN1CCCN(c2ccnc(OCCN3CCOCC3)n2)CC1 [CBK083808] | 104 |
| Cn1nnnc1SCCNC(=O)Nc1ccc(CN2CCOCC2)cc1 [CBK307084] | 97.4 |
| CCCCN(C(C)=O)c1c(CC)nc2ccc(C(=O)N(C)CCN(C)C)cn12 [CBK145739] | 91.7 |
| N=C(N)SCC1CNC(=N)S1 (stereo not drawn) [CBK260991] | 99.3 |
